# Where two headings read alike, the source gives them in different places.
# What was measured:
# DDR1 = biological target: T1, DDR1 (Homo sapiens, UniProt Q08345); assay: PathHunter U2OS DDR1 Functional Assay (DDR1 cellular assay); assay type: cell-based; conditions: U2OS PathHunter cells, collagen II stimulation; read-out: Cell DDR1 IC50
# T1 construct: ProLink™ (PK) tagged full-length DDR1b; host or cells: U2OS human osteosarcoma cells (PathHunter U2OS DDR1)
# Description: page 17: In vitro Biology DDR1 cellular assay The activity of Discoidin Domain-containing Receptor protein kinase (DDR) inhibitors was determined using the PathHunter® U2OS DDR1 Functional Assay which employs Enzyme Fragment Complementation (EFC) technology, where the β-galactosidase (β-gal) enzyme is split into two fragments, ProLink (PK) and Enzyme Acceptor (EA). Independently these fragments […] β-gal enzyme. In the PathHunter® U2OS DDR1 Functional Assay, the U2OS human osteosarcoma cell line is modified to co-express a ProLinkTM (PK) tagged full-length DDR1b and an Enzyme Acceptor (EA) tagged SH2 domain. Collagen II, as a ligand, induces activation of DDR1b which results in cross-phosphorylation. The SH2-EA fusion protein then specifically binds the phosphorylated receptor resulting in complementation of the two fragments of β-gal and formation of a functional enzyme. β-gal activity is then quantitatively detected using a chemiluminescent substrate. PathHunter® Human U2OS DDR1 cells were prepared in AssayCompleteTM Cell Plating 16 Reagent (DiscoverX 93-0563R16A) and plated at 5000 cells/well in a 384-well white, clear-bottom, sterile plate (ThermoFisher 142762) and incubated for 90 minutes at 37 °C, 5% CO2. Test compounds were serially diluted from a top concentration of 10 mM (1000x final assay concentration) directly in a 384-well low-volume polypropylene plate (Greiner bio-one 784201) using an Echo 555 acoustic liquid handler (Labcyte). Test compounds were diluted in AssayCompleteTM Cell Plating 16 Reagent then added to cells using an Integra ViaFlow384 electronic reagent dispenser and pre-incubated at 37 °C, 5% CO2 for 30 minutes. Following compound pre-incubation, the cells were stimulated with 20 μg/ml Bovine Type II Collagen (DiscoverX 92-1090) with incubation for 20 hours at 37 °C, 5% CO2. Next, PathHunter Detection Reagent (DiscoverX 93-[…]) was added to the cells, incubated for 60 minutes at 25 °C in the dark, prior to capturing the chemiluminescent signal on a PHERAstar (BMG LABTECH). The percentage of inhibition was calculated for each concentration of compound using a 0.1% DMSO vehicle/Collagen II control response as a 0% inhibition and a 10 nM Dasatinib/Collagen II positive 17 page 18: control response as a 100% inhibition. The final assay concentration of the top of the test compound CRC was 10 μM. 18
# [1] = Microsomes stability (clearance in human microsomes); assay type: in vitro ADME; conditions: pH 7.4, 0.8 mg protein/mL, 1 mM NADPH, 37 °C, read-out: CLint h mic (clearance in human microsomes)
# Description: values in Caco-2 assay were: <10 nm/s = low level; 10-50 nm/s = medium level; >50 nm/s = high […]
# Test compounds were incubated, in duplicate, at the concentration of 1 μM with liver microsomes (0.8 mg protein/mL) in Dulbecco’s buffer (pH 7.4) at 37 °C in the presence of 1 mM NADPH. At different time points (0, 5, 10, 20, 30, and 60 min), 50 μL aliquots of the incubates were taken, added with 80 μL of ice-cold acetonitrile, and 20 μL of 1 μM warfarin in acetonitrile (injection check) to stop the reaction, and samples were centrifuged. The supernatants were analyzed by LC−MS/MS for unchanged compounds. Test compounds were incubated with liver microsomes in Dulbecco’s buffer in the absence of NADPH for 0 and 60 min, as control. Midazolam at the concentration of 1 μM, was incubated with microsomes as positive control for phase I activity of microsomes. Control samples were processed as test compound samples.
# [2] = ChromLogD chromatographic lipophilicity; assay type: physicochemical; conditions: C18 column, pH 7.4
# Description: The chromatographic method was based on the differential retention times of test compounds on a C18 column (Luna C18(2), 30 x 2mm, […], 100 Å) under controlled liquid chromatography conditions, comparing retention times with those of standards (Benzyl Alcohol, p-Nitrophenol, Bromobenzene, Anthracene) with known log D values. Stock solutions (10 mM in DMSO) of test compounds were diluted to a final concentration of 1 mM. The mobile phases consisted of A (20mM Ammonium Acetate buffered to pH 7.4 with ammonia hydroxide) and B (ACN). The LC gradient profile was the following: a linear increase to 90% B during 0.0 to 1.3 min, hold at 90 % B during 1.3 to 1.53 min then back to 0.0% B from 1.53 to 1.60 min, hold at 0% B until the end of the run (2.00 min). 1 μL of the sample volume was injected, using a flow rate of 0.5 mL/min and a column temperature of 40°C. All compounds were detected by UPLC/MS analysis using a a Waters ACQUITY UPLC equipped with a Photo Diode Array (PDA) detector coupled with a Waters ACQUITY QDa single quadrupole mass spectrometer with an Electrospray ionization (ESI) source.
# The retention times were obtained by processing data in Waters Openlynx. The standards are then plotted in excel and the best fit line was used as the basis for calculating the unknown LogD values from the retention times of the peaks obtained.
# [3] = log kW IAM (immobilized artificial membrane chromatography); assay type: physicochemical; conditions: lipophilicity descriptor, phospholipid interaction
# Source text: Lipophilicity has been obtained in four different systems. BRlogD and ChromlogD are chromatographic surrogates of log Doct and, despite showing different values, are linearly correlated (Figure S4). Log k′ 80 PLRP-S is a surrogate of log Dtol. Log kw ^IAM mimics the interaction between the compounds and the phospholipids of membranes. The combination of the experimental lipophilicity descriptors is essential to evaluate lipophilicity in different regions of the membrane bilayer. This complete lipophilicity profile may give an idea of the permeability potential of poorly soluble compounds for which standard permeability measurements are unreliable. […] This is supported by its low IC50 value in the cell-based assay.
# [4] = Δlog kW IAM polarity descriptor; assay type: physicochemical; conditions: polarity in aqueous medium
# Description: (§1) Polarity is quantified by two descriptors: EPSA and Δlog kw ^IAM. The first is measured in an almost fully nonpolar environment, and the second describes polarity in an aqueous medium. […] This is also in line with the higher solubility of KIMCs over 1.
# EPSA polarity descriptor = assay type: physicochemical; conditions: almost fully nonpolar environment; polarity in nonpolar environment
# Description: as §1
# [5] = Chamelogk chameleonicity descriptor; assay type: physicochemical; conditions: >0.6 = chameleons, <0.6 = non-chameleons
# Description: Finally, chameleonicity was measured with the recently described Chamelogk method (Table ), where 0.6 is the threshold value to distinguish chameleons from non-chameleons.
# T1 sequence (Q08345 19-913): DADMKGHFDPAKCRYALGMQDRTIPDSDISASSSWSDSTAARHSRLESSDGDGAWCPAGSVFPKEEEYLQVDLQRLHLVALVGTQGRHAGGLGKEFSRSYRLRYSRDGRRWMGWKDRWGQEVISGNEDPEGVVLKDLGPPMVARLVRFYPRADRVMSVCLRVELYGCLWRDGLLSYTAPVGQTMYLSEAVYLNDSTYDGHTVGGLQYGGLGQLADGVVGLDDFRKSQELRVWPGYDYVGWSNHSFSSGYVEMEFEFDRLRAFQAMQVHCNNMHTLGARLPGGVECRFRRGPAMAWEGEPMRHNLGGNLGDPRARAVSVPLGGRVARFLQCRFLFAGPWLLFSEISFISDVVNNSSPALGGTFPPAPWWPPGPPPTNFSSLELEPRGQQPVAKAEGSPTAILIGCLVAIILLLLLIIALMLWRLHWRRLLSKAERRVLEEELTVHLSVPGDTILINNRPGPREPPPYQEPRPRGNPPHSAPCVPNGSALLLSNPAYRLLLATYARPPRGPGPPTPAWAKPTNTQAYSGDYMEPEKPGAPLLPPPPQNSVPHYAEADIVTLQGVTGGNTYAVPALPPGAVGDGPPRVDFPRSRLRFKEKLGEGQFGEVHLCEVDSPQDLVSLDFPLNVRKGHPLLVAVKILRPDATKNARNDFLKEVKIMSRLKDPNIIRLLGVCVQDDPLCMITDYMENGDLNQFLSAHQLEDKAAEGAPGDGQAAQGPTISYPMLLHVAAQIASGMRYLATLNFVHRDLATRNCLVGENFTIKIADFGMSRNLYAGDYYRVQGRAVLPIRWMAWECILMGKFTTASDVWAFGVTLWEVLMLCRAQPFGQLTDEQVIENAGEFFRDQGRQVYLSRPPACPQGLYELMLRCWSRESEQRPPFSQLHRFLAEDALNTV
SMILES,IC50 (DDR1) [µM],"microsomal CLint at 1 h, 1 µM ([1]; microsomes) [µL/min/mg]",chromatographic logD [2],log kW^IAM [3],Δlog kW^IAM [4],EPSA (EPSA polarity descriptor) [A^2],Chamelogk [5],"microsomal CLint at 1 h, 1 µM ([1]; liver microsomes) [µL/min/mg]"
Cn1cc2c3nc(ncc31)Nc1cnn(c1)CCCNCCOc1ccc-2cc1 [Compound 5a],0.125,80.5 ± 2.7,1.75,2.33,2.77,125,1.76,
Cn1cc2c3nc(ncc31)Nc1cnn(c1)CCCNC(=O)COc1ccc-2cc1 [Compound 5b],2,,1.52,1.87,2.41,106,0.61,88.5 ± 9.6
c1cc2nc(n1)Nc1cnn(c1)CCCNCCOc1ccc(cc1)N2 [Compound 6a],1.25,22.1 ± 1.4,1.15,1.96,3.26,127,1.63,
O=C1COc2ccc(cc2)Nc2ccnc(n2)Nc2cnn(c2)CCCN1 [Compound 6b],> 3.15,,1.17,1.53,2.58,108,1.95,12.1 ± 0.1

# From publication PMC12067128, “Macrocyclization: Enhancing Drug-like Properties of Discoidin Domain Receptor Kinase Inhibitors” (ACS Medicinal Chemistry Letters, 2025)
